# According to PubChem BioAssay AID1963832 (Molecular Pharmacology Branch, DTP, NCI, 2024):
# Test system: 885724-159-R-J1-PDC complex spheroid viability
# Experiment: Anticancer human tumor 885724-159-R-J1-PDC patient-derived pancreatic adenocarcinoma cell line growth inhibition [POLQ]
# Details: for IC50: curve of first compound; for viability, T/C: stronger effect = lower value
# Summary of the method: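 PDC + HUVEC + MSC complex spheroids; POLQ inhibitors ± partner drugs; top conc. at/near clinical Cmax, else 10 microM (SN-38 1 microM), half-log dilutions; 37 degrees C, 5% CO2.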
# 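Note: spheroids exposed to compounds for 7 days.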
structure (smiles),measurement,setting,value
CC1COCCN1c1cc(C2(O)CC3CCC(C2)O3)c2cnn(-c3ccn[nH]3)c2n1 (configuration not stated) + Cc1cccc(N(C)C(=O)C2C(O)CCN2c2nc(C)cc(C(F)(F)F)c2C#N)c1,IC50,second compound 0.0316 µM,142 nM
same,IC50,second compound 0.1 µM,243 nM
same,IC50,second compound 0.316 µM,151 nM
same,IC50,second compound 1 µM,188 nM
same,IC50,second compound 3.16 µM,302 nM
same,IC50,second compound 10 µM,225 nM
same,"viability, T/C","second compound 0.0316 µM, first compound 0.0316 µM",74.4%
same,"viability, T/C","second compound 0.0316 µM, first compound 0.1 µM",51.4%
same,"viability, T/C","second compound 0.0316 µM, first compound 0.316 µM",41.6%
same,"viability, T/C","second compound 0.0316 µM, first compound 1 µM",39.6%
same,"viability, T/C","second compound 0.0316 µM, first compound 3.16 µM",35.4%
same,"viability, T/C","second compound 0.0316 µM, first compound 10 µM",28.5%
same,"viability, T/C","second compound 0.1 µM, first compound 0.0316 µM",72%
same,"viability, T/C","second compound 0.1 µM, first compound 0.1 µM",58.1%
same,"viability, T/C","second compound 0.1 µM, first compound 0.316 µM",47.6%
same,"viability, T/C","second compound 0.1 µM, first compound 1 µM",39.3%
same,"viability, T/C","second compound 0.1 µM, first compound 3.16 µM",35.4%
same,"viability, T/C","second compound 0.1 µM, first compound 10 µM",30.8%
same,"viability, T/C","second compound 0.316 µM, first compound 0.0316 µM",70.4%
same,"viability, T/C","second compound 0.316 µM, first compound 0.1 µM",46.9%
same,"viability, T/C","second compound 0.316 µM, first compound 0.316 µM",47.2%
same,"viability, T/C","second compound 0.316 µM, first compound 1 µM",41%
same,"viability, T/C","second compound 0.316 µM, first compound 3.16 µM",35.3%
same,"viability, T/C","second compound 0.316 µM, first compound 10 µM",28.8%
same,"viability, T/C","second compound 1 µM, first compound 0.0316 µM",77.3%
same,"viability, T/C","second compound 1 µM, first compound 0.1 µM",56.7%
same,"viability, T/C","second compound 1 µM, first compound 0.316 µM",41.4%
same,"viability, T/C","second compound 1 µM, first compound 1 µM",40%
same,"viability, T/C","second compound 1 µM, first compound 3.16 µM",33.2%
same,"viability, T/C","second compound 1 µM, first compound 10 µM",27.1%
same,"viability, T/C","second compound 3.16 µM, first compound 0.0316 µM",68.8%
same,"viability, T/C","second compound 3.16 µM, first compound 0.1 µM",55.8%
same,"viability, T/C","second compound 3.16 µM, first compound 0.316 µM",49.4%
same,"viability, T/C","second compound 3.16 µM, first compound 1 µM",43.2%
same,"viability, T/C","second compound 3.16 µM, first compound 3.16 µM",36.5%
same,"viability, T/C","second compound 3.16 µM, first compound 10 µM",29.2%
same,"viability, T/C","second compound 10 µM, first compound 0.0316 µM",70.6%
same,"viability, T/C","second compound 10 µM, first compound 0.1 µM",54.2%
same,"viability, T/C","second compound 10 µM, first compound 0.316 µM",48.8%
same,"viability, T/C","second compound 10 µM, first compound 1 µM",38.1%
same,"viability, T/C","second compound 10 µM, first compound 3.16 µM",36%
same,"viability, T/C","second compound 10 µM, first compound 10 µM",29%
